Active and inactive are the calls of the source.
How the values were obtained:
Vero [1] = test: cells; format: functional, cell-based; details: Chlorocebus sabaeus
Vero [2] = test: cells; format: functional; details: Chlorocebus sabaeus
[3] = viability of uninfected HEp-2 cells – cell-based, HTS, cytotoxicity control for RSV inhibitor project, dose response (AID 2410); format: functional; details: human respiratory syncytial virus
cells [4] = test: cells
cells [5] = format: functional, cell-based
CAAX prenyl protease 2 = molecular target: T1, CAAX prenyl protease 2 (Saccharomyces cerevisiae S288c, UniProt Q03530); format: biochemical
T1 sequence (Q03530 whole entry): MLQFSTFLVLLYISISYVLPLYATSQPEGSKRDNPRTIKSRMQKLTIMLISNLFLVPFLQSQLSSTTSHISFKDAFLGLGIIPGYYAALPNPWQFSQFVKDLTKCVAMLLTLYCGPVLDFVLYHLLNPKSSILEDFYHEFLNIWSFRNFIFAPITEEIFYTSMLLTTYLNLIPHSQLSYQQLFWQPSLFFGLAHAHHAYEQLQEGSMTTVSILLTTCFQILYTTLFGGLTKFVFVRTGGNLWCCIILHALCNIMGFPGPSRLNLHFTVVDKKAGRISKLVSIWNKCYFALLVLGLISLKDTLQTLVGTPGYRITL

[6] = NIH3T3 cell viability loss – ATP luminescence, mouse fibroblasts, counter-screen, dose response (AID 2010); format: functional, cell-based;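 also: cells exposed to compound for about 90 hours before reading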
[7] = Trypanosoma cruzi growth suppression in host cells – NIH3T3 host cells, beta-gal luminescence, confirmation (AID 2044); format: functional, cell-based;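 also: intracellular parasites grown in NIH/3T3 mouse fibroblasts as host cells; luminescent beta-galactosidase reporter signal from transgenic T. cruzi replicating inside host cells; inhibitors lower the luminescence signal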
Cytochrome P450 2C9 = Cytochrome P450 2C9 (Homo sapiens, UniProt P11712)
Cytochrome P450 2C19 = Cytochrome P450 2C19 (Homo sapiens, UniProt P33261); test: Cytochrome panel assay with activity outcomes. Panel member name: p450-cyp2c19 Compounds with AC50 equal or less than 10 uM are considered active; format: functional; details: read-out: AC50
HEK293 [8] = test: cells; format: functional, cell-based; details: Homo sapiens
HEK293 [9] = test: inhibition of NOD1-driven NF-kB reporter – cell-based, luminescence, uHTS, primary screen (AID 1578); format: functional; details: Homo sapiens
HEK293 [10] = test: cells; format: functional, cell-based; details: Homo sapiens; remark: listed apart in the source
HEK293 [11] = test: NOD2 signaling inhibitors in MDP-stimulated cells, cell-based, uHTS, luminescence (AID 2001); format: functional; details: Homo sapiens
[12] = molecular target: Nucleotide-binding oligomerization domain-containing protein 2 (Homo sapiens, UniProt Q9HC29); test: inhibition of NOD2-driven NF-kB reporter – cell-based, luminescence, uHTS, HEK293 (AID 1566); format: functional
HEK293 [13] = test: cells; format: functional, cell-based; details: Homo sapiens; remark: listed apart in the source
Cytochrome P450 3A4 = Cytochrome P450 3A4 (Homo sapiens, UniProt P08684);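 also: CYP3A4 tested as one member of a cytochrome P450 panel screen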
[14] = molecular target: DNA dC->dU-editing enzyme APOBEC-3G (Homo sapiens, UniProt Q9HC16); format: functional;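 also: Dose-response counterscreen measuring inhibition of APOBEC3G DNA deaminase activity, run while confirming APOBEC3A inhibitors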
[15] = molecular target: DNA dC->dU-editing enzyme APOBEC-3A (Homo sapiens, UniProt P31941); test: Dose Response confirmation of small molecule APOBEC3A DNA Deaminase Inhibitors via a fluorescence-based single-stranded DNA deaminase assay. [Related pubchem assays (depositor defined):AID493011, AID493024]; format: functional
[16] = THP-1 cell cytotoxicity, dose response, cytotoxicity control for non-replicating M. tuberculosis project (AID 489025); format: functional
[17] = molecular target: T2, Microphthalmia-associated transcription factor (Homo sapiens, UniProt O75030); test: reducers of TRPM1 reporter luminescence, concentration series – cell-based, SK-MEL-5, cherry-picked, set 3, MITF inhibitor project, dose response (AID 493073); format: functional;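 also: SK-MEL-5 melanoma cells with luciferase driven by the MITF target TRPM1 promoter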
T2 sequence (O75030 whole entry): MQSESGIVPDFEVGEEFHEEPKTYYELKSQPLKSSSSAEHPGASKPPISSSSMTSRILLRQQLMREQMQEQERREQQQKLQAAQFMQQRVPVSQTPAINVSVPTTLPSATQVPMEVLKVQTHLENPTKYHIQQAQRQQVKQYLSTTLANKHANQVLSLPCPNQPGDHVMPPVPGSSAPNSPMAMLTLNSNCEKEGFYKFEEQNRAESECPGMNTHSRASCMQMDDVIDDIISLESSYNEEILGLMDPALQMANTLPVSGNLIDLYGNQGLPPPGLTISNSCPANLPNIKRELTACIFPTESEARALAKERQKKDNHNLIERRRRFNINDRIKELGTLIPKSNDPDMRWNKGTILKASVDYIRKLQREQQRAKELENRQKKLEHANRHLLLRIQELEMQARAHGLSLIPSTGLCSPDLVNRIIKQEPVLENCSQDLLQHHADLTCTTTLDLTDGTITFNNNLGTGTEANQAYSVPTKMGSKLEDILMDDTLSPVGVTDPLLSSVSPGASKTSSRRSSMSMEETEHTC

cells [18] = format: functional
[19] = Vero E6 cell cytotoxicity, dose response, cytotoxicity control for non-replicating M. tuberculosis project, secondary assay (AID 492998); format: functional, VeroE6; details: Vero C1008

Chain of DNA dC->dU-editing enzyme APOBEC-3G (Q9HC16 whole entry): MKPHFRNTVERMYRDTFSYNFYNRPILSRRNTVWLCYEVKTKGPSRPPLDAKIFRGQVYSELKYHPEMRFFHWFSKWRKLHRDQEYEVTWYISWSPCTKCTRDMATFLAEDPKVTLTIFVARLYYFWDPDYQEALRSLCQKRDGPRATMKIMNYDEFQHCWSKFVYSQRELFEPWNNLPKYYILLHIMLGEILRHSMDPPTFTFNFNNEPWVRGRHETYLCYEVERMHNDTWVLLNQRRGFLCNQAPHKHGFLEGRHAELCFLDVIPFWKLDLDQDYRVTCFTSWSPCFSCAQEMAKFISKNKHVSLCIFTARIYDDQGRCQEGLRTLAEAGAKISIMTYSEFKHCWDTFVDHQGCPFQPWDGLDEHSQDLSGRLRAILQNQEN
Chain of DNA dC->dU-editing enzyme APOBEC-3A (P31941 whole entry): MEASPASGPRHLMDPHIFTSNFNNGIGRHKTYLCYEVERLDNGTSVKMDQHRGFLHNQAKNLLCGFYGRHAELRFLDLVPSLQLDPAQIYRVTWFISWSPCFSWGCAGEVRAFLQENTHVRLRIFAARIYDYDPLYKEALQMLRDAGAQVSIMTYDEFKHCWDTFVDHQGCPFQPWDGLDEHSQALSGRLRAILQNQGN
Chain of Cytochrome P450 2C9 (P11712 whole entry): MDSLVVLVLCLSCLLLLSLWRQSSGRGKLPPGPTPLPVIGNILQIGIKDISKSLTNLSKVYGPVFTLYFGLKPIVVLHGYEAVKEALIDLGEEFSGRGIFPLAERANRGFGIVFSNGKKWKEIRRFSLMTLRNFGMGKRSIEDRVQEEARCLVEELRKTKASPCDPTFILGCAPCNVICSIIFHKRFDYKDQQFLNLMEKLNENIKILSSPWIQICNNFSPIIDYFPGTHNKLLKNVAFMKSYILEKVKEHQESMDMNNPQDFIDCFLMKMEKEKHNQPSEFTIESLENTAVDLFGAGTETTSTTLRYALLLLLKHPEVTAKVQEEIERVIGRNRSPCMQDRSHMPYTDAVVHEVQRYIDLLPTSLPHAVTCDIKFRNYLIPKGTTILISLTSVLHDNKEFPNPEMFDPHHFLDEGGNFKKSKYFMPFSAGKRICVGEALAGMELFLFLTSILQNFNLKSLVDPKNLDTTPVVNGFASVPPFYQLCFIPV
Chain of Cytochrome P450 3A4 (P08684 whole entry): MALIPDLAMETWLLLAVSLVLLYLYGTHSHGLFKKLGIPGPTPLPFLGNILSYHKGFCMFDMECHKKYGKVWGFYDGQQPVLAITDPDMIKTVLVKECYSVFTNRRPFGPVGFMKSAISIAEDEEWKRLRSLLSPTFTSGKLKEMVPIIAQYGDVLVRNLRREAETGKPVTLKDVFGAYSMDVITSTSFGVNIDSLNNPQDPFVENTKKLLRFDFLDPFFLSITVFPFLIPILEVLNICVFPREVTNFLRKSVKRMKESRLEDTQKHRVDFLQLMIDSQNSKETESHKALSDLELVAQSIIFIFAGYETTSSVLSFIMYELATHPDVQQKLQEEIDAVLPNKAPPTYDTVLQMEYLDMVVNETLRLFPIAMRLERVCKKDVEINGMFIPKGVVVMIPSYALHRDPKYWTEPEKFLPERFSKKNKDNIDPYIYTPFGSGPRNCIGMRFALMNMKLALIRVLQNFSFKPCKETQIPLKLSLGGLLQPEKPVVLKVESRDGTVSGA
Chain of Nucleotide-binding oligomerization domain-containing protein 2 (Q9HC29 whole entry, the tested form may be a part): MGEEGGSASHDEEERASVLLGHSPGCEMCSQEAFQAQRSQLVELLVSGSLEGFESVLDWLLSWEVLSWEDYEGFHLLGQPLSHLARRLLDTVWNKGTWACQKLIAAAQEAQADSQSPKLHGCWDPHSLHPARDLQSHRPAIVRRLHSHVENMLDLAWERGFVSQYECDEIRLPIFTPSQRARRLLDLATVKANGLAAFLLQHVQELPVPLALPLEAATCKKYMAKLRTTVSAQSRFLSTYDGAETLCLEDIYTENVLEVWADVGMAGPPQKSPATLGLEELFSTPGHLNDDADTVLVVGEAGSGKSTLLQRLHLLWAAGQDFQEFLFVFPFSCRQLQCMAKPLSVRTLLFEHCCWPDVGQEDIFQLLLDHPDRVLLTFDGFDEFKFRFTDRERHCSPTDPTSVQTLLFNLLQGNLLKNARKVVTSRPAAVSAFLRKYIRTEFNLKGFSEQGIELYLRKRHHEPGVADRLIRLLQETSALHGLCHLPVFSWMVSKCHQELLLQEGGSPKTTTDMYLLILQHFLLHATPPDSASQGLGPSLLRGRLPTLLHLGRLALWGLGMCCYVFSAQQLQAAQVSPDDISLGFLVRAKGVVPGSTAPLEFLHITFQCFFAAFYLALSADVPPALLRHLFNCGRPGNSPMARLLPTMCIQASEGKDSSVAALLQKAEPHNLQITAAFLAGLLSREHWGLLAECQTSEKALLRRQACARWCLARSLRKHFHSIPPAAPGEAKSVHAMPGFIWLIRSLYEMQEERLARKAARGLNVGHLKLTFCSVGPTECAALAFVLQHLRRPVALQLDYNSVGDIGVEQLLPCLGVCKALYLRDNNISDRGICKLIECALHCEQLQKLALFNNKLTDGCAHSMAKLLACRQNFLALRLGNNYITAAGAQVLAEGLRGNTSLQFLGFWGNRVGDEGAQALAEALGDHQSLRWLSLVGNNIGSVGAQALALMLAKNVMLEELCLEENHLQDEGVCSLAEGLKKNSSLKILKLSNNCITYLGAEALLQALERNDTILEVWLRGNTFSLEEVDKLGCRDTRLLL
Chain of Cytochrome P450 2C19 (P33261 whole entry): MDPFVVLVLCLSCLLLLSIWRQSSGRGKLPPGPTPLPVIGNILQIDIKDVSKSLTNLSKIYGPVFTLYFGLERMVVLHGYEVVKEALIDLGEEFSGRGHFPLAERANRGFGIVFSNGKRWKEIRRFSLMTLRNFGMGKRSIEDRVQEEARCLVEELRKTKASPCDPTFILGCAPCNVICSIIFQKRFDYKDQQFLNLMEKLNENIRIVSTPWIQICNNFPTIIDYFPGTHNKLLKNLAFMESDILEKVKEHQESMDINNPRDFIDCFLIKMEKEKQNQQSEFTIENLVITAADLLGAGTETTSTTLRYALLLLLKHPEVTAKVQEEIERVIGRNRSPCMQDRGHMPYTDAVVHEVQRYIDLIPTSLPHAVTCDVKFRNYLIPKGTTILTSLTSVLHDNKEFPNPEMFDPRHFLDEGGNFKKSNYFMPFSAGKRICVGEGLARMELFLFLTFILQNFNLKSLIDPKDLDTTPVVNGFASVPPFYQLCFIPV

Compound: CCCN(CCC)CCNC(=O)C1CCN(Cc2nc(-c3ccc(Cl)cc3)oc2C)CC1
- IC50 (Vero [1]): 10.8 µM (active)
- CC50 (Vero [2]): > 25 µM (active)

Compound: Cc1ccc2c(c1)cc(C(=O)NCc1ccccc1)n2C
- IC50 (Vero [1]): 17.8 µM (active)
- CC50 [3]: 44.9 µM (active)
- IC50 (cells [4]): 24 µM (active)
- EC50 (cells [5]): > 350 µM (not active)

Compound: COc1ccc(OC)c(Cc2nnc(CCC(=O)N3CCN(C4CCCC4)CC3)o2)c1
- AC50 (CAAX prenyl protease 2): 7.48 µM (active)

Compound: COc1ccccc1Nc1ncnc2c1c(C)c(C)n2CCCN(C)C
- IC50 (Vero [1]): 23.2 µM (active)
- CC50 (Vero [2]): > 25 µM (active)
- EC50 [6]: 4.51 µM (active)
- EC50 [7]: 0.156 µM (active)

Compound: CN1C(=O)/C(=C/c2cccc(Cl)c2)Sc2ccc(C(=O)N3CCOCC3)cc21
- AC50 (CAAX prenyl protease 2): 5.96 µM (active)

Compound: COc1cc(NC(=O)C2CCN(S(=O)(=O)c3cccc4nonc34)CC2)cc(OC)c1
- AC50 (Cytochrome P450 2C9): inconclusive
- AC50 (Cytochrome P450 2C19): 15.8 µM (inconclusive)

Compound: Cc1c(Nc2c3ccccc3nc3ccccc23)c(=O)n(-c2ccccc2)n1C
- IC50 (HEK293 [8]): > 20 µM (inactive)
- EC50 (HEK293 [9]): > 20 µM (inactive)
- IC50 (HEK293 [10]): > 20 µM (inactive)
- IC50 (HEK293 [11]): > 20 µM (inactive)
- EC50 [12]: > 20 µM (inactive)
- IC50 (HEK293 [13]): > 20 µM (inactive)

Compound: CCOc1ccccc1-n1nnnc1SCC(=O)Nc1cc(C)on1
- AC50 (Cytochrome P450 2C9): inconclusive
- AC50 (Cytochrome P450 3A4): 3.98 µM (inconclusive)

Compound: C[N+](C)(C)c1ccccc1
- IC50 [14]: 3.33 µM (active)
- IC50 [15]: 2.16 µM (active)

Compound: CN1CCN(S(=O)(=O)c2ccc(C3CCCCC3)cc2)CC1
- IC50 [14]: 16.8 µM (active)
- IC50 [15]: 9.2 µM (active)

Compound: CN1CCN(c2ncncc2-c2ccc(N(C)C)cc2)CC1
- AC50 (Cytochrome P450 2C9): inconclusive
- AC50 (Cytochrome P450 3A4): 2 µM (inconclusive)

Compound: C[N+]1(CCOC(=O)C2(c3ccccc3)CCCC2)CCCCC1
- IC50 [14]: 3.57 µM (active)
- IC50 [15]: 3.89 µM (active)

Compound: CNc1nc(-c2ccc(N(C)C)cc2)nc2ccccc12
- AC50 (Cytochrome P450 2C9): inconclusive

Compound: Cc1ccc(-n2nnnc2CNC(=O)c2ccc([N+](=O)[O-])o2)cc1C
- CC50 [16]: 22.5 µM (active)
- AC50 [17]: 9.72 µM (active)
- IC50 (cells [18]): 8.5 µM (active)
- EC50 [6]: > 30 µM (not active)
- CC50 [19]: 12.1 µM (active)
- EC50 [7]: 0.145 µM (active)
